In this experiment the test system is nude mice, LOX melanoma ip, survival T/C. Nature of the experiment: NCI In Vivo Anticancer Drug Screen. Data for tumor model Human Amelanotic Melanoma (LOX) (intraperitoneal) in NU/NU BALB/C (nude) mice. The conditions noted are these: endpoint: median survival time, higher = longer survival. The protocol:
The antitumor activity of compounds was measured in mice bearing transplantable tumors. Survival or tumor size were measured and the results are expressed as the measurement made in the treated group (T) divided by the measurement made in the vehicle treated control group (C). The tumor model used in this assay is Human Amelanotic Melanoma (LOX) (intraperitoneal) in NU/NU BALB/C (nude) mice

Where [1] appears, read: dose: 50.0 mg/kg/injection, schedule: Q04DX003 (ip), vehicle: saline.

Each structure is given as a SMILES string. “And” between values parts separate entries of the source, which are not always exact repeats. Identical values can stand only once. Inconclusive results and toxic doses are left out.

Regarding `N[C@@H](Cc1ccc(N(CCCl)CCCl)cc1)C(=O)O`, the T/C is 155 % of control (dose: 1.0 mg/kg/injection, schedule: Q01DX005 (ip), vehicle: water); 166 % of control (dose: 1.0 mg/kg/injection, schedule: Q01DX015 (ip), vehicle: water); 258 % of control (dose: 2.0 mg/kg/injection, schedule: Q01DX005 (ip), vehicle: water); 218 % of control (dose: 2.0 mg/kg/injection, schedule: Q01DX015 (ip), vehicle: water); 171 % of control (dose: 2.5 mg/kg/injection, schedule: Q01DX001 (ip), vehicle: water); 162 % of control (dose: 2.5 mg/kg/injection, schedule: Q04DX003 (ip), vehicle: water). The T/C reads like this: (dose: 4.0 mg/kg/injection, schedule: Q01DX005 (ip), vehicle: water) 344 % of control; (dose: 4.0 mg/kg/injection, schedule: Q01DX015 (ip), vehicle: water) 344 % of control; (dose: 5.0 mg/kg/injection, schedule: Q01DX001 (ip), vehicle: water) 188 % of control; (dose: 5.0 mg/kg/injection, schedule: Q04DX003 (ip), vehicle: water) 241 % of control; (dose: 6.0 mg/kg/injection, schedule: Q04DX003 (ip), vehicle: saline) 111 % of control and 203 % of control; (dose: 8.0 mg/kg/injection, schedule: Q01DX005 (ip), vehicle: water) 344 % of control. The T/C by setting is: (dose: 9.0 mg/kg/injection, schedule: Q04DX003 (ip), vehicle: saline) 122 % of control and 203 % of control; (dose: 10.0 mg/kg/injection, schedule: Q01DX001 (ip), vehicle: water) 344 % of control; (dose: 10.0 mg/kg/injection, schedule: Q04DX003 (ip), vehicle: water) 344 % of control; (dose: 20.0 mg/kg/injection, schedule: Q01DX001 (ip), vehicle: water) 344 % of control; (dose: 20.0 mg/kg/injection, schedule: Q04DX003 (ip), vehicle: water) 97 % of control.
For the molecule `CO[C@H](/C(C)=C/C=C/C(C)=C/c1coc(C)n1)[C@H](C)[C@H]1C[C@@H](O)[C@@]2(C)O[C@H]2/C=C/[C@@H](C)[C@@H]2C[C@@H](CC(=O)O2)C[C@H]2O[C@@H]2C(=O)O1`, the T/C reads like this: (dose: 0.09 mg/kg/injection, schedule: Q01DX009 (ip), vehicle: other) 176 % of control; (dose: 0.12 mg/kg/injection, schedule: Q04DX003 (ip), vehicle: other) 121 % of control; (dose: 0.13 mg/kg/injection, schedule: Q01DX009 (ip), vehicle: other) 180 % of control; (dose: 0.2 mg/kg/injection, schedule: Q01DX009 (ip), vehicle: other) 175 % of control; (dose: 0.2 mg/kg/injection, schedule: Q04DX003 (ip), vehicle: other) 108 % of control; (dose: 0.3 mg/kg/injection, schedule: Q01DX009 (ip), vehicle: other) 152 % of control and 196 % of control. Further, the T/C was 162 % of control (dose: 0.44 mg/kg/injection, schedule: Q01DX009 (ip), vehicle: other); 122 % of control (dose: 0.55 mg/kg/injection, schedule: Q04DX003 (ip), vehicle: other); 93 % of control (dose: 0.66 mg/kg/injection, schedule: Q01DX009 (ip), vehicle: other).
For the molecule `CCC1OC(OC)C=CC1=O` (centres undefined), the T/C reads like this: (dose: 25.0 mg/kg/injection, schedule: Q04DX003 (ip), vehicle: suspension in saline) 96 % of control; (dose: 50.0 mg/kg/injection, schedule: Q04DX003 (ip), vehicle: suspension in saline) 104 % of control; (dose: 100.0 mg/kg/injection, schedule: Q04DX003 (ip), vehicle: suspension in saline) 113 % of control.
As for `C/C(=N\NC(=O)c1ccccc1O)c1cccc(/C(C)=N/NC(=O)c2ccccc2O)n1`, the T/C was 116 % of control under setting [1] and 154 % of control (dose: 100.0 mg/kg/injection, schedule: Q04DX003 (ip), vehicle: saline).
As for `CN(C)CCCN=c1c2ccccc2n(C)c2[nH]c(=O)n(C)c(=O)c12`, the T/C is 112 % of control (dose: 12.5 mg/kg/injection, schedule: Q04DX003 (ip), vehicle: saline) and 107 % of control under setting [1].
As for `Cc1ccc(/C=C/C(=O)/C=C/c2ccc(C)o2)o1`, the T/C was 113 % of control (dose: 50.0 mg/kg/injection, schedule: Q04DX003 (ip), vehicle: DMSO); 102 % of control (dose: 100.0 mg/kg/injection, schedule: Q04DX003 (ip), vehicle: DMSO); 98 % of control (dose: 200.0 mg/kg/injection, schedule: Q04DX003 (ip), vehicle: DMSO); 100 % of control (dose: 400.0 mg/kg/injection, schedule: Q04DX003 (ip), vehicle: DMSO); 106 % of control (dose: 800.0 mg/kg/injection, schedule: Q04DX003 (ip), vehicle: DMSO).
For `CC1=C[P+](c2ccccc2)(c2ccccc2)C=C(c2ccccc2)O1`, the T/C reads like this: (dose: 0.38 mg/kg/injection, schedule: Q04DX003 (ip), vehicle: saline) 97 % of control; (dose: 3.0 mg/kg/injection, schedule: Q04DX003 (ip), vehicle: saline) 88 % of control.
On to `COC(=O)NC1C(C)OC(OC2C/C=C(/C)C3C=CC4C(OC5CC(OC6CC(OC7CC(O)C(O)C(C)O7)C(OC7CC(O)C(OC)C(C)O7)C(C)O6)C(O)C(C)O5)C(C)CC(C)C4C3(C)/C(O)=C3\C(=O)OC4(CC(C)C(CO)=CC4/C=C\2C)C3=O)CC1(C)[N+](=O)[O-]` (centres undefined), for which the T/C is, setting by setting: (dose: 75.0 mg/kg/injection, schedule: Q04DX003 (ip), vehicle: water) 93 % of control; (dose: 150.0 mg/kg/injection, schedule: Q04DX003 (ip), vehicle: water) 120 % of control.
For `CC(=O)C[n+]1ccccc1Sc1ccc(Cl)cc1`, the T/C is 95 % of control (dose: 1.5 mg/kg/injection, schedule: Q04DX003 (ip), vehicle: saline with Tween-80); 94 % of control (dose: 3.0 mg/kg/injection, schedule: Q04DX003 (ip), vehicle: saline with Tween-80); 99 % of control (dose: 6.0 mg/kg/injection, schedule: Q04DX003 (ip), vehicle: saline with Tween-80); 96 % of control (dose: 12.0 mg/kg/injection, schedule: Q04DX003 (ip), vehicle: saline with Tween-80); 95 % of control (dose: 24.0 mg/kg/injection, schedule: Q04DX003 (ip), vehicle: saline with Tween-80).
`CC1(O)C=CC(=O)C=C1`: the T/C is, setting by setting: (dose: 6.25 mg/kg/injection, schedule: Q04DX003 (ip), vehicle: water) 108 % of control; (dose: 12.5 mg/kg/injection, schedule: Q04DX003 (ip), vehicle: water) 101 % of control; (dose: 25.0 mg/kg/injection, schedule: Q04DX003 (ip), vehicle: water) 105 % of control; (dose: 50.0 mg/kg/injection, schedule: Q04DX003 (ip), vehicle: water) 111 % of control.
Take `CN(Cc1cnc2nc(N)nc(N)c2n1)c1ccc(C(=O)N[C@@H](CCC(=O)O)C(=O)O)cc1`: the T/C is 90 % of control (dose: 0.38 mg/kg/injection, schedule: Q01DX015 (ip), vehicle: sodium bicarbonate); 90 % of control (dose: 0.75 mg/kg/injection, schedule: Q01DX005 (ip), vehicle: sodium bicarbonate); 113 % of control (dose: 1.5 mg/kg/injection, schedule: Q01DX005 (ip), vehicle: sodium bicarbonate); 95 % of control (dose: 1.5 mg/kg/injection, schedule: Q01DX015 (ip), vehicle: sodium bicarbonate); 112 % of control (dose: 3.0 mg/kg/injection, schedule: Q01DX005 (ip), vehicle: sodium bicarbonate); 102 % of control (dose: 3.0 mg/kg/injection, schedule: Q01DX015 (ip), vehicle: sodium bicarbonate). Moreover, the T/C (dose: 6.0 mg/kg/injection, schedule: Q01DX005 (ip), vehicle: sodium bicarbonate) was 112 % of control; the T/C (dose: 10.0 mg/kg/injection, schedule: Q04DX003 (ip), vehicle: sodium bicarbonate) is 107 % of control; the T/C (dose: 12.0 mg/kg/injection, schedule: Q01DX005 (ip), vehicle: sodium bicarbonate) is 107 % of control; the T/C (dose: 12.0 mg/kg/injection, schedule: Q04DX003 (ip), vehicle: sodium bicarbonate) was 105 % of control and 112 % of control; the T/C (dose: 18.0 mg/kg/injection, schedule: Q04DX003 (ip), vehicle: sodium bicarbonate) is 103 % of control and 101 % of control; the T/C (dose: 20.0 mg/kg/injection, schedule: Q04DX003 (ip), vehicle: sodium bicarbonate) was 102 % of control. In addition, the T/C (dose: 25.0 mg/kg/injection, schedule: Q01DX001 (ip), vehicle: sodium bicarbonate) was 107 % of control; the T/C (dose: 27.0 mg/kg/injection, schedule: Q04DX003 (ip), vehicle: sodium bicarbonate) is 105 % of control and 112 % of control; the T/C (dose: 40.0 mg/kg/injection, schedule: Q04DX003 (ip), vehicle: sodium bicarbonate) was 113 % of control; the T/C (dose: 50.0 mg/kg/injection, schedule: Q01DX001 (ip), vehicle: sodium bicarbonate) is 106 % of control; the T/C (dose: 100.0 mg/kg/injection, schedule: Q01DX001 (ip), vehicle: sodium bicarbonate) is 103 % of control; the T/C (dose: 200.0 mg/kg/injection, schedule: Q01DX001 (ip), vehicle: sodium bicarbonate) is 121 % of control.

The values are drawn from PubChem BioAssay AID280 (DTP/NCI, 2004).
